Laboratory results from paper PMC9288506, “Compounds activating VCP D1 ATPase enhance both autophagic and proteasomal neurotoxic protein clearance” (Nature Communications, 2022).

Key:
Assay in all cases: biochemical
Parameters in all cases: Thermo Fisher in vitro kinase panel, per cent inhibition of kinase activity at 10 uM
ACVR1B (ALK4) = ACVR1B (ALK4) (Homo sapiens, UniProt P36896)
Procedure: (§1) Kinase profiling of SMER28 and analogs SMER28 and analogs were tested at 10 µM in a panel of 123 kinases at ThermoFisher Scientific. Follow-up of selected kinases for SMER28 and analogs was also performed at ThermoFisher Scientific. Data are shown in Supplementary Data 2 and 3. […] An inhibition of PIK3C could induce autophagy, mediated by signaling through the AKT/mTOR axis[45].

CHEK1 (CHK1) = CHEK1 (CHK1) (Homo sapiens, UniProt O14757)
Procedure: as §1

CSNK2A2 (CK2 alpha 2) = CSNK2A2 (CK2 alpha 2) (Homo sapiens, UniProt P19784)
CSNK2A2 (CK2 alpha 2), sequence (P19784 whole entry): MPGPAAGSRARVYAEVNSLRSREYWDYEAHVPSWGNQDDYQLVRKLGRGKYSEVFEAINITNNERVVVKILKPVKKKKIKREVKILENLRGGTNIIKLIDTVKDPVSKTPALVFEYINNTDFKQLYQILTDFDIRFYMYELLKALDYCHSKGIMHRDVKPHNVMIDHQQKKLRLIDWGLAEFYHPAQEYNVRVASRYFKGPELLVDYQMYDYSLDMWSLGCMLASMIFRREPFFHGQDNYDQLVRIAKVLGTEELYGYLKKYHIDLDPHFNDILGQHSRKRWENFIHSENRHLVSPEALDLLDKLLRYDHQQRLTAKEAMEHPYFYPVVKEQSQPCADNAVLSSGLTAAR
Procedure: as §1

DDR2 = DDR2 (Homo sapiens, UniProt Q16832)
Procedure: as §1

EEF2K = EEF2K (Homo sapiens, UniProt O00418)
Procedure: as §1

FER = FER (Homo sapiens, UniProt P16591)
FER, sequence (P16591 whole entry): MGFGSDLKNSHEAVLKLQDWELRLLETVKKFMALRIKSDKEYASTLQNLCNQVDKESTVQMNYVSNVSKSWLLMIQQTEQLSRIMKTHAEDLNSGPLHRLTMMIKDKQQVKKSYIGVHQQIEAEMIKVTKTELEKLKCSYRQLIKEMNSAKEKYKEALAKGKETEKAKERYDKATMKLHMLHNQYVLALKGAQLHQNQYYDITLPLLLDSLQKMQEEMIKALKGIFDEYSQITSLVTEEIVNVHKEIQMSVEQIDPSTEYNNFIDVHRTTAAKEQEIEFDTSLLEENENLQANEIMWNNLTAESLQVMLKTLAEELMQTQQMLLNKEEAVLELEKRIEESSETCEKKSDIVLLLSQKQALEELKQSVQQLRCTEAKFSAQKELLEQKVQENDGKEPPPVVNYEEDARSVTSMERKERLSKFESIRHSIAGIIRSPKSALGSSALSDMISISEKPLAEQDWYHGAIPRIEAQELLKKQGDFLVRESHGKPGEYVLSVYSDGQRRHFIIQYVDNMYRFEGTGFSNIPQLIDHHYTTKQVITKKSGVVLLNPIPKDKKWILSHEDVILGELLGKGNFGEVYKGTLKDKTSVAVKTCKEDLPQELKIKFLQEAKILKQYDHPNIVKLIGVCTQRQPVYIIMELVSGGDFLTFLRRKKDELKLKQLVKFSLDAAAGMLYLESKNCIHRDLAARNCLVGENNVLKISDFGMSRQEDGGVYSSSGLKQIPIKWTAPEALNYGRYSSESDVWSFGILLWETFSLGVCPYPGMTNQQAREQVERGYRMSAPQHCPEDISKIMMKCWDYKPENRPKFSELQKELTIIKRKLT
Procedure: as §1

FGFR3 = FGFR3 (Homo sapiens, UniProt P22607)
FGFR3, sequence (P22607 whole entry): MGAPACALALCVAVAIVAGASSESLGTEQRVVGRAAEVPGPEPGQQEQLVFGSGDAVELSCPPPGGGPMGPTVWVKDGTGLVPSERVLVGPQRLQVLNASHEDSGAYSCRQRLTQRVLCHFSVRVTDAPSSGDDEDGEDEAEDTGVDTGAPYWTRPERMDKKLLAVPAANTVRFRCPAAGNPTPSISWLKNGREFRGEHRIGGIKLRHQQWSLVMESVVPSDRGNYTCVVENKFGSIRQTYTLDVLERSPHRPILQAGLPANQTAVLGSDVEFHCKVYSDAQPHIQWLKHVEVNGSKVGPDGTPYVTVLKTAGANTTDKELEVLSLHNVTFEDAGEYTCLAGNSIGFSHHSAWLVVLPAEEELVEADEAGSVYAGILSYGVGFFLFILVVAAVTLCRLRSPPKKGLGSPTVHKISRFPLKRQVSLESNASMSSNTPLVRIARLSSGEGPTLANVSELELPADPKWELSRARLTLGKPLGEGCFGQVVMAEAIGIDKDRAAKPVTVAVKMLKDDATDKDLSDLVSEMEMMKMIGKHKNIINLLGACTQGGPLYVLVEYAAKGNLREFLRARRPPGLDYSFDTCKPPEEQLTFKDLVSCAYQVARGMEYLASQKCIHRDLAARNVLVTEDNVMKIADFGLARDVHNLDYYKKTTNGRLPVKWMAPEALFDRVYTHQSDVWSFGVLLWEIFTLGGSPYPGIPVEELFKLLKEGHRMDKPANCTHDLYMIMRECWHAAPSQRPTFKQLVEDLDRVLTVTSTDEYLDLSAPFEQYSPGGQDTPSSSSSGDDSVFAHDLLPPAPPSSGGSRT
Procedure: as §1

FRAP1 (mTOR) = FRAP1 (mTOR) (Homo sapiens, UniProt P42345)
Procedure: as §1

IRAK4 = IRAK4 (Homo sapiens, UniProt Q9NWZ3)
Procedure: as §1

MAP3K9 (MLK1) = MAP3K9 (MLK1) (Homo sapiens, UniProt P80192)
Procedure: as §1

MAPKAPK2 = MAPKAPK2 (Homo sapiens, UniProt P49137)
Procedure: as §1

MINK1 = MINK1 (Homo sapiens, UniProt Q8N4C8)
MINK1, sequence (Q8N4C8 whole entry): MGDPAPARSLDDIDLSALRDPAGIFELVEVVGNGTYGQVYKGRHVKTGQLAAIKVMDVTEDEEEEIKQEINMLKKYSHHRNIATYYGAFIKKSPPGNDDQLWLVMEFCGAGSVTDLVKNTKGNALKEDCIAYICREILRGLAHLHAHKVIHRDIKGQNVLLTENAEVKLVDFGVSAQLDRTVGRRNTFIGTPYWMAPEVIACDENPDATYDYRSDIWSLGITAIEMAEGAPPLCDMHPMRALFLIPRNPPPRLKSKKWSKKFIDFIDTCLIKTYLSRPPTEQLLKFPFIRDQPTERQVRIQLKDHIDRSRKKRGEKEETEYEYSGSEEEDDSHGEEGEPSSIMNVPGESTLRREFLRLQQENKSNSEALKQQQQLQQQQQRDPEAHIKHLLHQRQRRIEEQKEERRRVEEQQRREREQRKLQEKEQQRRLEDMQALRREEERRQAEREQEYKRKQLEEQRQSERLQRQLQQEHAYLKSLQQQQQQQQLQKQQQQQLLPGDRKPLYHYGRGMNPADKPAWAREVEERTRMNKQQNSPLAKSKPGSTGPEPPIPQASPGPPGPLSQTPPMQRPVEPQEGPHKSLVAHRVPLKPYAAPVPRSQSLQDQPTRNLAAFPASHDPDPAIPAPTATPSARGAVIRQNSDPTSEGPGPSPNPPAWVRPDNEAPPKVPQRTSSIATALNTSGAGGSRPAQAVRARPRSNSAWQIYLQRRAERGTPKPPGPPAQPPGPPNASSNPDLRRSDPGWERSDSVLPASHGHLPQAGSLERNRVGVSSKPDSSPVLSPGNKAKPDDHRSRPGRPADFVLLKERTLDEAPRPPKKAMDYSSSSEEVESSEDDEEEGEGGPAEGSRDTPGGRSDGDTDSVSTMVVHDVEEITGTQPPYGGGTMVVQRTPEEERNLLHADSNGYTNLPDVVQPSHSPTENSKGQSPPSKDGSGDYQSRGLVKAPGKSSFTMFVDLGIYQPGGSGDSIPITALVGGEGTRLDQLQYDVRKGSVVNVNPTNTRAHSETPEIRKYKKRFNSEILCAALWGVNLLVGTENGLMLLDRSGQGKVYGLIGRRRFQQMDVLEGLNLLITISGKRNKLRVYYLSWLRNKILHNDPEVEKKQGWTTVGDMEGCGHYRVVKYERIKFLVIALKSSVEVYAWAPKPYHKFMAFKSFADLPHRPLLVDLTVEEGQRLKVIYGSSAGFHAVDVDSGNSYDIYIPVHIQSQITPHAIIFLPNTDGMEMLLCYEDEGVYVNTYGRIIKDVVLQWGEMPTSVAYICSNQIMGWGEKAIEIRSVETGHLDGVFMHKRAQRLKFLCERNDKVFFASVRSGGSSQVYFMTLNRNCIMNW
Procedure: as §1

NEK2 = NEK2 (Homo sapiens, UniProt P51955)
Procedure: as §1

PAK7 (KIAA1264) = target: T1, PAK7 (KIAA1264) (Homo sapiens, UniProt Q9P286)
T1 construct: gene PAK5
Procedure: as §1

PIK3C2A (PI3K-C2 alpha) = PIK3C2A (PI3K-C2 alpha) (Homo sapiens, UniProt O00443)
Procedure: as §1

PIK3CG (p110 gamma) = PIK3CG (p110 gamma) (Homo sapiens, UniProt P48736)
Procedure: as §1

PRKCA (PKC alpha) = PRKCA (PKC alpha) (Homo sapiens, UniProt P17252)
Procedure: as §1

RET V804M = RET V804M (Homo sapiens, UniProt P07949, V804M)
Procedure: as §1

RPS6KA1 (RSK1) = RPS6KA1 (RSK1) (Homo sapiens, UniProt Q15418)
Procedure: as §1

RPS6KA5 (MSK1) = RPS6KA5 (MSK1) (Homo sapiens, UniProt O75582)
Procedure: as §1

STK4 (MST1) = STK4 (MST1) (Homo sapiens, UniProt Q13043)
STK4 (MST1), sequence (Q13043 whole entry): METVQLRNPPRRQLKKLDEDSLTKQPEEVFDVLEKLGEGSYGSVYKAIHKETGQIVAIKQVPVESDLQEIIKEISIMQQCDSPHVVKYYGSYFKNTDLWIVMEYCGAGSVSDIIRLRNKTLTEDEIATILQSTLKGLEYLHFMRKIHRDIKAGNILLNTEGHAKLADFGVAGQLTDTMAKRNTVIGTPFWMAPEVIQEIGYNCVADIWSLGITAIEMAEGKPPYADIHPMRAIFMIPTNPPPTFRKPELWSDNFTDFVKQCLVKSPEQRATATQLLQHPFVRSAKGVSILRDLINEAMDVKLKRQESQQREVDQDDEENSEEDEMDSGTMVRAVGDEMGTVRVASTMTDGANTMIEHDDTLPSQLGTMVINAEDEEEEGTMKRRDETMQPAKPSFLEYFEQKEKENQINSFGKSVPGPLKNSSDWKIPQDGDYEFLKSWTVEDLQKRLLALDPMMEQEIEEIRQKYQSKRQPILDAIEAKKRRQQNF
Procedure: as §1

SYK = SYK (Homo sapiens, UniProt P43405)
Procedure: as §1

TYRO3 (RSE) = TYRO3 (RSE) (Homo sapiens, UniProt Q06418)
TYRO3 (RSE), sequence (Q06418 whole entry): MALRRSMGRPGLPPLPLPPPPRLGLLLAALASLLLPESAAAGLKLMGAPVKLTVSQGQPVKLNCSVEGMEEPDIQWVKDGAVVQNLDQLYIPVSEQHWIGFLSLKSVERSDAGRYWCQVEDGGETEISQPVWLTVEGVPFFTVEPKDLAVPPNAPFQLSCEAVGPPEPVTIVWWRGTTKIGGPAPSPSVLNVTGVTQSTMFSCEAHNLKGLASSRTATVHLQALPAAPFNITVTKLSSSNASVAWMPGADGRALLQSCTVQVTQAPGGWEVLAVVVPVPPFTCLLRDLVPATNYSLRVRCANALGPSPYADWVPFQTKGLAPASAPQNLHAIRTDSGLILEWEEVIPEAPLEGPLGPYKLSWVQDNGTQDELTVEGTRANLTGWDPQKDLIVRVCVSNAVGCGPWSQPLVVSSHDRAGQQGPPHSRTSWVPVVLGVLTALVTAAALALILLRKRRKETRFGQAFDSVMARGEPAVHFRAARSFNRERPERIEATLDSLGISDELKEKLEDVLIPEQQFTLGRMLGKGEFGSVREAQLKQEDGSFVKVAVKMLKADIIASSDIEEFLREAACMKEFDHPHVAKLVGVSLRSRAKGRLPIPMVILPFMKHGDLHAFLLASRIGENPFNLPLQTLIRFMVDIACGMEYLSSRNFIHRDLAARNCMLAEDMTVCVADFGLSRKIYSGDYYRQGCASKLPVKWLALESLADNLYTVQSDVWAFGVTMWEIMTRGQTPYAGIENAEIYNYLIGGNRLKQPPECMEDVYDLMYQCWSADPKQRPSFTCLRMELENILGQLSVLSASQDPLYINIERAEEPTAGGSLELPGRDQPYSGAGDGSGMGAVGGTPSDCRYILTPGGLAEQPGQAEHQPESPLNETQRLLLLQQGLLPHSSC
Procedure: as §1

ULK2 = ULK2 (Homo sapiens, UniProt Q8IYT8)
Procedure: as §1

YES1 = YES1 (Homo sapiens, UniProt P07947)
Procedure: as §1

## C=CCNc1ncnc2ccc(Br)cc12 [SMER28]
ACVR1B (ALK4)
  inhibition at 10 µM: -19%
CHEK1 (CHK1)
  inhibition at 10 µM: -8%
CSNK2A2 (CK2 alpha 2)
  inhibition at 10 µM: 10%
DDR2
  inhibition at 10 µM: 0%
EEF2K
  inhibition at 10 µM: 2%
FER
  inhibition at 10 µM: 16%
FGFR3
  inhibition at 10 µM: -7%
FRAP1 (mTOR)
  inhibition at 10 µM: -7%
IRAK4
  inhibition at 10 µM: 68%
MAP3K9 (MLK1)
  inhibition at 10 µM: -2%
MAPKAPK2
  inhibition at 10 µM: 0%
MINK1
  inhibition at 10 µM: 45%
NEK2
  inhibition at 10 µM: -1%
PAK7 (KIAA1264)
  inhibition at 10 µM: 7%
PIK3C2A (PI3K-C2 alpha)
  inhibition at 10 µM: 22%
PIK3CG (p110 gamma)
  inhibition at 10 µM: 65%
PRKCA (PKC alpha)
  inhibition at 10 µM: 10%
RET V804M
  inhibition at 10 µM: 38%
RPS6KA1 (RSK1)
  inhibition at 10 µM: 21%
RPS6KA5 (MSK1)
  inhibition at 10 µM: -3%
STK4 (MST1)
  inhibition at 10 µM: 11%
SYK
  inhibition at 10 µM: 8%
TYRO3 (RSE)
  inhibition at 10 µM: 11%
ULK2
  inhibition at 10 µM: 3%
YES1
  inhibition at 10 µM: 13%
